The subject of assay [1] is H1650. Put plainly: Non Small Cell Lung Cancer proliferation assay (Alamar Blue reduction), H1650. It is filed as cell-based, human. Summed up:
(§1)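 Human NSCLC cells were seeded at 250 cells/well with compound at a final 1% DMSO and treated for 48 hours at 37° C. 1% DMSO served as the high control.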
On the technique in general: Alamar Blue is a resazurin reagent that responds to reducing activity.

Assay [2] has as its system H1975. Description: Non Small Cell Lung Cancer proliferation assay (Alamar Blue reduction), H1975. It is filed as cell-based, human. Summed up:
as §1

Assay [3] relates to H2030. Description: Non Small Cell Lung Cancer proliferation assay (Alamar Blue reduction), H2030. In kind it is cell-based, human. The essentials:
as §1

The test system of assay [4] is H3255. Put plainly: Non Small Cell Lung Cancer proliferation assay (Alamar Blue reduction), H3255. In kind it is cell-based, human. The essentials:
as §1

Assay [5] relates to H358. Description: Non Small Cell Lung Cancer proliferation assay (Alamar Blue reduction), H358. To be noted: Homo sapiens. It is filed as cell-based. The essentials: as §1
The subject of assay [6] is HPL1D (human peripheral lung epithelial) cell line. Put plainly: Cell proliferation / dose response (Alamar Blue), HPL1D. In kind it is cell-based. The conditions noted are these: read-out: IC50 HPL1D. How it is done:
WI-38: human lung fibroblast cell line. […] WT: wildtype; WT*: over-expressed wildtype. Dose response studies against 34 compounds from the pyridazinone and phenylfuran-carboxamide class were conducted. […] In addition, Tarceva was included in these dose response studies. The dose response studies were done with the following standard procedure. […] The cells were incubated for 48 hours at 37 C to complete treatment, and then alamar blue was added for an additional 48 hours. Finally, alamar blue reduction was measured and the data was loaded into ORIS, our data screening acquisition platform.

The subject of assay [7] is H820. Description: Dose response study (Alamar Blue), H820. In kind it is cell-based. The conditions noted are these: Homo sapiens, read-out: IC50 H820. How it is done: (§2) Dose response studies against 34 compounds from the pyridazinone and phenylfuran-carboxamide class were conducted. […] In addition, Tarceva was included in these dose response studies.
(§3) The dose response studies were done with the following standard procedure. First, the cells were counted and dispensed at 250 cells/well into 384-well microplates with compound. The cells were incubated for 48 hours at 37 C to complete treatment, and then alamar blue was added for an additional 48 hours. Finally, alamar blue reduction was measured and the data was loaded into ORIS, our data screening acquisition platform.

The subject of assay [8] is H23. Put plainly: Dose response study (Alamar Blue), H23. It is filed as cell-based. To be noted: Homo sapiens, read-out: IC50 H23. As for the experimental part:
as §2, §3

Assay [9] deals with H2122. Put plainly: Dose response study (Alamar Blue), H2122. To be noted: Homo sapiens, read-out: IC50 H2122. In kind it is cell-based. As for the experimental part: as §2, §3
In assay [10] the test system is H2444. Description: Dose response study (Alamar Blue), H2444. It is filed as cell-based. The conditions noted are these: Homo sapiens, read-out: IC50 H2444. How it is done: as §2, §3
Setting [11] is: Homo sapiens, NCI-H1650, 48 h, H1650, 12 point doubling dilution 10 uM to 5 nM, 48 h treatment, alamar blue additional 48 h, read-out: IC50 H1650.
Where [12] appears, read: percentage inhibition, 10 μM compound in 1% DMSO (v/v).
Where [13] appears, read: Homo sapiens, NCI-H1975, 48 h, H1975, 12 point doubling dilution 10 uM to 5 nM, 48 h treatment, alamar blue additional 48 h, read-out: IC50 H1975.
[14] abbreviates: Homo sapiens, NCI-H2030, 48 h, H2030, 12 point doubling dilution 10 uM to 5 nM, 48 h treatment, alamar blue additional 48 h, read-out: IC50 H2030.
[15] abbreviates: Homo sapiens, NCI-H3255, 48 h, H3255, 12 point doubling dilution 10 uM to 5 nM, 48 h treatment, alamar blue additional 48 h, read-out: IC50 H3255.
The mark [16] stands for this setting: Homo sapiens, NCI-H1650, dose response 10 M to 5 nM, IC50, read-out: Dose Response (uM) H1650.
Where [17] appears, read: Homo sapiens, NCI-H1975, dose response 10 M to 5 nM, IC50, read-out: Dose Response (uM) H1975.
[18] abbreviates: Homo sapiens, NCI-H2030, dose response 10 M to 5 nM, IC50, read-out: Dose Response (uM) H2030.
[19] abbreviates: Homo sapiens, NCI-H3255, dose response 10 M to 5 nM, IC50, read-out: Dose Response (uM) H3255.
Where [20] appears, read: NCI-H358, H358, 12 point doubling dilution 10 uM to 5 nM, 48 h treatment, alamar blue additional 48 h, read-out: IC50 H358.
Where [21] appears, read: NCI-H358, read-out: Dose Response (uM) H358.
Where [22] appears, read: HPL1D, 12 point doubling dilution 10 uM to 5 nM, 48 h treatment, alamar blue additional 48 h.
[23] abbreviates: NCI-H820, H820, 12 point doubling dilution 10 uM to 5 nM, 48 h treatment, alamar blue additional 48 h.
Where [24] appears, read: NCI-H23, H23, 12 point doubling dilution 10 uM to 5 nM, 48 h treatment, alamar blue additional 48 h.
The mark [25] stands for this setting: NCI-H2122, H2122, 12 point doubling dilution 10 uM to 5 nM, 48 h treatment, alamar blue additional 48 h.
Where [26] appears, read: NCI-H2444, H2444, 12 point doubling dilution 10 uM to 5 nM, 48 h treatment, alamar blue additional 48 h.

Each structure is given as a SMILES string. Like-named read-outs stand apart in the source and are kept apart here.

`Cc1ccc(NC(=O)c2ccc([N+](=O)[O-])o2)cc1` [compound 98697]: the IC50 in assay [1] (setting [11]) is 0.6 µM; in assay [1] (Homo sapiens, NCI-H1650, phenylfuran-2-carboxamide SAR summary, read-out: IC50(uM) 1650), 0.44 µM; in assay [2] (setting [13]) it was 4.57 µM; in assay [2] (Homo sapiens, NCI-H1975, phenylfuran-2-carboxamide SAR summary, read-out: IC50(uM) 1975), 1.09 µM; in assay [3] (setting [14]), 1.18 µM; in assay [3] (Homo sapiens, NCI-H2030, phenylfuran-2-carboxamide SAR summary, read-out: IC50(uM) 2030), 1.06 µM. Moreover, the IC50 in assay [4] (setting [15]) was 2.72 µM; in [4] (Homo sapiens, NCI-H3255, phenylfuran-2-carboxamide SAR summary, read-out: IC50(uM) 3255), 0.91 µM; in assay [5] (NCI-H358, 48 h, H358, 12 point doubling dilution 10 uM to 5 nM, 48 h treatment, alamar blue additional 48 h, read-out: IC50 H358), 1.2 µM; in assay [6] (48 h), greater than 10000 nM; in [7] (NCI-H820, 48 h), 3530 nM; in assay [8] (NCI-H23, 48 h), 910 nM. Also, the IC50 in assay [9] (NCI-H2122, 48 h) is 5200 nM; in assay [10] (NCI-H2444, 48 h), 4790 nM. Also, the inhibition at 10 µM was determined as 103% in [1] (Homo sapiens, NCI-H1650, primary screening, H1650, 10 μM compound in 1% DMSO (v/v), read-out: PRIMARY HTS [%] H1650 (percentage inhibition)); 70% in assay [2] (Homo sapiens, NCI-H1975, primary screening, H1975, 10 μM compound in 1% DMSO (v/v), read-out: PRIMARY HTS [%] H1975 (percentage inhibition)); 62% in assay [3] (Homo sapiens, NCI-H2030, primary screening, H2030, 10 μM compound in 1% DMSO (v/v), read-out: PRIMARY HTS [%] H2030 (percentage inhibition)); 83% in assay [4] (Homo sapiens, NCI-H3255, primary screening, H3255, 10 μM compound in 1% DMSO (v/v), read-out: PRIMARY HTS [%] H3255 (percentage inhibition)). Besides, the “CONFIRMATION [%] 1650” value in [1] (setting [12]) was 136%. Moreover, in [2] (setting [12]), the “CONFIRMATION [%] 1975” value is given as 70%. The “CONFIRMATION [%] 2030” value in [3] (setting [12]) is reported as 101%. Further, the “CONFIRMATION [%] 3255” value in [4] (setting [12]) came out at 130%.
Regarding `O=c1c(Br)c(Br)cnn1-c1ccccc1` [compound 257015], the IC50 in assay [1] (setting [11]) amounted to 0.92 µM; in [1] (setting [16]) it was 1.14 µM; in [2] (setting [13]), 0.32 µM; in assay [2] (setting [17]), 0.16 µM; in [3] (setting [14]), 0.31 µM; in [3] (setting [18]), 0.39 µM. Also, the IC50 in assay [4] (setting [15]) turned out to be 0.76 µM; in assay [4] (setting [19]), 0.62 µM; in [5] (setting [20]) it was 0.43 µM; in assay [5] (setting [21]) it was 0.16 µM; in assay [6] (setting [22]) it was 300 nM; in [7] (setting [23]), 220 nM. Further, the figures for the IC50 in assay [8] (setting [24]), in assay [9] (setting [25]) and in assay [10] (setting [26]) were 230 nM, 1260 nM and 300 nM, respectively.
For `O=c1c(Br)c(Br)cnn1-c1ccccn1` [compound 267073], the IC50 is 0.79 µM in assay [1] (setting [11]); 0.8 µM in assay [1] (setting [16]); 0.16 µM in [2] (setting [13]); 0.09 µM in assay [2] (setting [17]); 0.12 µM in assay [3] (setting [14]); 0.76 µM in assay [3] (setting [18]). Besides, the IC50 was determined as 0.45 µM in assay [4] (setting [15]); 0.66 µM in assay [4] (setting [19]); 0.14 µM in assay [5] (setting [20]); 0.07 µM in assay [5] (setting [21]); 110 nM in assay [6] (setting [22]); 100 nM in assay [7] (setting [23]). Further, the IC50 in assay [8] (setting [24]) worked out at 70 nM; in assay [9] (setting [25]) it was 780 nM; in [10] (setting [26]), 130 nM.

Usually inhibition stands for the change of the read-out against control, counted positive when it falls.

The values are drawn from patent US20100210649A1, “PYRIDAZINONES AND FURAN-CONTAINING COMPOUNDS” (Sloan-Kettering Institute for Cancer Research, priority 2006, published 2010).
